Data: patent US9596851B1, “Method for controlling growth of red palm weevil” (priority 2015, dated 2017)
Like-named read-outs stand apart in the source and are kept apart here.

How the values were obtained:
Red Palm Weevil larvae [1] = test: Insecticidal potential of coumarin at different doses incorporated in artificial diet (mortality bioassay); type: in vivo, Rhynchophorus ferrugineus; conditions: for EC50 / LD50: artificial diet, after three days
Experimental: Insecticidal potential of coumarin at different dose concentrations (200 ppm, 400 ppm, 600 ppm, 800 ppm and 1000 ppm) was evaluated against 4th, 8th and 12th instar Red Palm Weevil larvae. The above mentioned concentrations of coumarin were prepared by dissolving coumarin in 0.05% acetone. The ingredients of artificial diet (wheat flour @ 45 g/L, corn flour @ 45 g/L, Yeast @ 45 g/L, Agar @ 17.5 g/L, Sorbic acid @ 1.6 g/L, L-Ascorbic Acid @ 4 g/L, Pharmaton (2 capsules/L), Tetracycline @ 500 mg/L) were dissolved in 1 L of coumarin solution with strength 200 mg/L, 400 mg/L, 600 mg/L, 800 mg/L and 1000 mg/L, separately. The newly moulted 4th, 8th and 12th instar Red Palm Weevil larvae were allowed to feed on each diet separately in perforated plastic bowls. In case of control treatment, 0.05% acetone was used to prepare the diet. Twenty larvae were used to compile one replicate. Five replicates were prepared likewise. The fresh diet was provided daily to the larvae. The experimental units were incubated at 30±1° C. and 75%±5% relative humidity. Abbot formula was used to correct the control mortality (Abbott, 1925). Efficacy of coumarin was determined at each dose to calculate LD50 values.

Red Palm Weevil larvae [2] = test: Growth indices bioassay (nutritional indices ECI, ECD, AD) on coumarin-incorporated artificial diet; type: in vivo, Rhynchophorus ferrugineus; conditions: 72 hours post exposure; for inhibition at 1000 ppm: Rhynchophorus ferrugineus, feed or water, 72 h, 1000 ppm in diet
Experimental: Impact of different doses of coumarin on the growth and development of different larval instars of red palm weevil was evaluated by growth indices bioassays. All the solutions of coumarin were prepared by dissolving in 0.05% acetone. The ingredients of artificial diet (wheat flour @ 45 g/L, corn flour @ 45 g/L, Yeast @ 45 g/L, Agar @ 17.5 g/L, Sorbic acid @ 1.6 g/L, L-Ascorbic Acid @ 4 g/L, Pharmaton (2 capsules/L), Tetracycline @ 500 mg/L) were dissolved in 1 L of coumarin solution with strength 200 mg/L, 400 mg/L, 600 mg/L, 800 mg/L and 1000 mg/L of coumarin, separately. Newly moulted 4th, 8th and 12th instar Red Palm Weevil larvae were allowed to feed on each diet separately in perforated plastic bowls. In case of control treatment, 0.05% acetone was used to prepare the diet. Twenty larvae were used to compile one replicate. Five replicates were prepared likewise. The fresh diet was daily provided to the larvae. The experimental units were incubated at 30±1° C. and 75%±5% relative humidity. Initial and final weight of the larvae and the frass produced during 72 hours post exposure was also measured. These measurements were used to determine the impact of coumarin on the nutritional indices including: Approximate Digestibility [AD=([…]−frass weight)/food ingested×100], Efficacy of conversion of digested food [ECD=weight gained by the larva/(food ingested−dry weight of frass)×100] and Efficacy of conversion of ingested food [ECI=100×dry weight gained by the larva/dry weight of food consumed].
For growth indices, measurements were made 72 hours post-exposure on dry matter basis. Larvae, frass and remaining food after 72 h were dried at 60° C. until constant weight. Growth indices data were analyzed by one way analysis of variance (ANOVA). Means were compared by Fisher's Least Significant Difference (LSD) test.

[3] = 4th, 8th and 12th instar larvae, 200-1000 ppm in diet

Structure (SMILES): O=c1ccc2ccccc2o1 [coumarin]
- EC50 (Red Palm Weevil larvae [1]; 4th instar larvae): 293.77 ppm
- LD50 (Red Palm Weevil larvae [1]; 4th instar larvae): 404.55 ppm
- mortality versus dose (Red Palm Weevil larvae [1]; [3]): directly proportional
- EC50 (Red Palm Weevil larvae [1]; 8th instar larvae): 438.32 ppm
- LD50 (Red Palm Weevil larvae [1]; 8th instar larvae): 509.37 ppm
- EC50 (Red Palm Weevil larvae [1]; 12th instar larvae): 559.77 ppm
- LD50 (Red Palm Weevil larvae [1]; 12th instar larvae): 708.24 ppm
- approximate digestibility (AD) (Red Palm Weevil larvae [2]; [3]): significantly increased
- inhibition at 1000 ppm (Red Palm Weevil larvae [2]; 4th instar larvae, read-out: ECD (efficacy of conversion of digested food) inhibition compared to control): 96.9%
- inhibition at 1000 ppm (Red Palm Weevil larvae [2]; 4th instar larvae, read-out: ECI (efficacy of conversion of ingested food) inhibition compared to control): 95.6%
- inhibition at 1000 ppm (Red Palm Weevil larvae [2]; 8th instar larvae, read-out: ECD (efficacy of conversion of digested food) inhibition compared to control): 89%
- inhibition at 1000 ppm (Red Palm Weevil larvae [2]; 8th instar larvae, read-out: ECI (efficacy of conversion of ingested food) inhibition compared to control): 84%
- inhibition at 1000 ppm (Red Palm Weevil larvae [2]; 12th instar larvae, read-out: ECD (efficacy of conversion of digested food) inhibition compared to control): 78.5%
- inhibition at 1000 ppm (Red Palm Weevil larvae [2]; 12th instar larvae, read-out: ECI (efficacy of conversion of ingested food) inhibition compared to control): 69.4%
